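Grown in 96-well plates, cells were treated for 48 hours with each compound at five concentrations. Insufficient inhibition: endpoint recorded as highest concentration tested. At the GI50, growth is halved.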 The source made the active and inactive calls. Rule as the data show it: active = GI50 up to about 1.1 µM and inactive = higher.
How the values were obtained:
Assay in all cases: DTP human tumour cell line panel, 48 h
786-0 = tested on: 786-0
A498 = tested on: A498
A549 = tested on: A549
ACHN = tested on: ACHN
CAKI-1 = tested on: CAKI-1
COLO 205 = tested on: COLO 205
DLD-1 = tested on: DLD-1
DMS-114 = tested on: DMS-114
DMS-273 = tested on: DMS-273
EKVX = tested on: EKVX
HCT-116 = tested on: HCT-116
HCT-15 = tested on: HCT-15
HL-60 = tested on: HL-60
HOP-92 = tested on: HOP-92
HT-29 = tested on: HT-29
IGROV-1 = tested on: IGROV-1
K562 = tested on: K562
KM-20L2 = tested on: KM-20L2
LOX IMVI = tested on: LOX IMVI
LXFL 529 = tested on: LXFL 529
M14 = tested on: M14
M19-MEL = tested on: M19-MEL
MOLT-4 = tested on: MOLT-4
Malme-3M = tested on: Malme-3M
NCI-H226 = tested on: NCI-H226
NCI-H23 = tested on: NCI-H23
NCI-H522 = tested on: NCI-H522
OVCAR-3 = tested on: OVCAR-3
OVCAR-4 = tested on: OVCAR-4
OVCAR-5 = tested on: OVCAR-5
OVCAR-8 = tested on: OVCAR-8
RPMI-8226 = tested on: RPMI-8226
RXF 393 = tested on: RXF 393
RXF 631 = tested on: RXF 631
SF-268 = tested on: SF-268
SF-295 = tested on: SF-295
SF-539 = tested on: SF-539
SK-MEL-28 = tested on: SK-MEL-28
SK-MEL-2 = tested on: SK-MEL-2
SK-MEL-5 = tested on: SK-MEL-5
SK-OV-3 = tested on: SK-OV-3
SN12C = tested on: SN12C
SNB-19 = tested on: SNB-19
SNB-75 = tested on: SNB-75
SNB-78 = tested on: SNB-78
SW-620 = tested on: SW-620
TK-10 = tested on: TK-10
UACC-257 = tested on: UACC-257
UACC-62 = tested on: UACC-62
UO-31 = tested on: UO-31
XF498 = tested on: XF498
CCRF-CEM = tested on: CCRF-CEM
HCC 2998 = tested on: HCC 2998
HOP-18 = tested on: HOP-18
HOP-62 = tested on: HOP-62
NCI-H460 = tested on: NCI-H460
SR = tested on: SR
U-251 = tested on: U-251
KM12 = tested on: KM12

Measured: GI50

N#C/C(=C1\OC(=N)C(c2ccc(Cl)cc2Cl)C1=O)c1ccc(Cl)cc1Cl (stereo not drawn)
> 100 µM: HCT-15
inactive: 786-0 > 100 µM | A498 > 100 µM | A549 > 100 µM | ACHN > 100 µM | CAKI-1 > 100 µM | COLO 205 > 100 µM | DLD-1 > 100 µM | DMS-114 > 100 µM | DMS-273 > 100 µM | EKVX 24.2 µM | HCT-116 > 100 µM | HL-60 > 100 µM | HOP-92 80.5 µM | HT-29 > 100 µM | IGROV-1 > 100 µM | K562 > 100 µM | KM-20L2 > 100 µM | LOX IMVI > 100 µM | LXFL 529 > 100 µM | M14 > 100 µM | M19-MEL > 100 µM | MOLT-4 > 100 µM | Malme-3M > 100 µM | NCI-H226 > 100 µM | NCI-H23 > 100 µM | NCI-H522 > 100 µM | OVCAR-3 > 100 µM | OVCAR-4 > 100 µM | OVCAR-5 > 100 µM | OVCAR-8 > 100 µM | RPMI-8226 > 100 µM | RXF 393 > 100 µM | RXF 631 > 100 µM | SF-268 > 100 µM | SF-295 > 100 µM | SF-539 > 100 µM | SK-MEL-28 > 100 µM | SK-MEL-2 > 100 µM | SK-MEL-5 > 100 µM | SK-OV-3 > 100 µM | SN12C > 100 µM | SNB-19 > 100 µM | SNB-75 58.9 µM | SNB-78 > 100 µM | SW-620 > 100 µM | TK-10 > 100 µM | UACC-257 > 100 µM | UACC-62 > 100 µM | UO-31 56.6 µM | XF498 86.9 µM

Cc1cc2c(C)nn(Cc3ccccc3Cl)c2c(C#N)c1C
> 100 µM: HCT-15
inactive: 786-0 > 100 µM | A549 > 100 µM | ACHN > 100 µM | CCRF-CEM > 100 µM | COLO 205 > 100 µM | DLD-1 > 100 µM | DMS-273 > 100 µM | EKVX > 100 µM | HCC 2998 > 100 µM | HCT-116 > 100 µM | HL-60 > 100 µM | HOP-18 > 100 µM | HOP-62 > 100 µM | HOP-92 > 100 µM | HT-29 > 100 µM | IGROV-1 > 100 µM | KM-20L2 > 100 µM | LOX IMVI > 100 µM | LXFL 529 > 100 µM | M19-MEL > 100 µM | MOLT-4 > 100 µM | Malme-3M > 100 µM | NCI-H226 > 100 µM | NCI-H23 > 100 µM | NCI-H460 > 100 µM | OVCAR-3 > 100 µM | OVCAR-5 > 100 µM | OVCAR-8 > 100 µM | RPMI-8226 > 100 µM | RXF 393 > 100 µM | RXF 631 > 100 µM | SF-268 > 100 µM | SF-295 > 100 µM | SF-539 > 100 µM | SK-MEL-28 > 100 µM | SK-MEL-2 > 100 µM | SK-OV-3 > 100 µM | SN12C > 100 µM | SNB-19 > 100 µM | SNB-75 > 100 µM | SR > 100 µM | SW-620 > 100 µM | TK-10 > 100 µM | U-251 > 100 µM | UACC-257 > 100 µM | UACC-62 > 100 µM | UO-31 > 100 µM | XF498 > 100 µM

CCc1cccc(C)c1NC(C)=O
inactive: 786-0 > 100 µM | A498 > 100 µM | A549 > 100 µM | ACHN > 100 µM | CAKI-1 > 100 µM | CCRF-CEM > 100 µM | DLD-1 > 100 µM | DMS-114 > 100 µM | DMS-273 > 100 µM | EKVX > 100 µM | HCC 2998 > 100 µM | HCT-116 > 100 µM | HL-60 > 100 µM | HOP-62 > 100 µM | HT-29 > 100 µM | IGROV-1 > 100 µM | K562 > 100 µM | KM-20L2 > 100 µM | KM12 > 100 µM | LXFL 529 > 100 µM | M14 > 100 µM | M19-MEL > 100 µM | MOLT-4 > 100 µM | Malme-3M > 100 µM | NCI-H226 > 100 µM | NCI-H23 > 100 µM | NCI-H460 > 100 µM | OVCAR-3 > 100 µM | OVCAR-4 > 100 µM | OVCAR-5 > 100 µM | OVCAR-8 > 100 µM | RPMI-8226 > 100 µM | RXF 393 > 100 µM | RXF 631 > 100 µM | SF-295 > 100 µM | SF-539 > 100 µM | SK-MEL-28 > 100 µM | SK-MEL-2 > 100 µM | SK-MEL-5 > 100 µM | SK-OV-3 > 100 µM | SNB-75 > 100 µM | SNB-78 > 100 µM | SW-620 > 100 µM | TK-10 > 100 µM | U-251 > 100 µM | UACC-257 > 100 µM | UACC-62 > 100 µM | UO-31 > 100 µM | XF498 > 100 µM
> 100 µM: HCT-15

O=C(O)C1=CNC(C(=O)O)=NN1
inactive: 786-0 > 100 µM | A549 > 100 µM | ACHN > 100 µM | CAKI-1 > 100 µM | CCRF-CEM > 100 µM | COLO 205 > 100 µM | DLD-1 > 100 µM | DMS-114 > 100 µM | EKVX > 100 µM | HCT-116 > 100 µM | HL-60 > 100 µM | HOP-18 > 100 µM | HOP-62 > 100 µM | HOP-92 > 100 µM | HT-29 > 100 µM | IGROV-1 > 100 µM | K562 > 100 µM | KM-20L2 > 100 µM | KM12 > 100 µM | LXFL 529 > 100 µM | M14 > 100 µM | M19-MEL > 100 µM | MOLT-4 > 100 µM | Malme-3M > 100 µM | NCI-H226 > 100 µM | NCI-H23 > 100 µM | NCI-H460 > 100 µM | NCI-H522 > 100 µM | OVCAR-3 > 100 µM | OVCAR-4 > 100 µM | OVCAR-8 > 100 µM | RPMI-8226 > 100 µM | RXF 393 > 100 µM | RXF 631 > 100 µM | SF-268 > 100 µM | SF-295 > 100 µM | SF-539 > 100 µM | SK-MEL-28 > 100 µM | SK-MEL-2 > 100 µM | SK-MEL-5 > 100 µM | SK-OV-3 > 100 µM | SN12C > 100 µM | SNB-19 > 100 µM | SNB-75 > 100 µM | SR > 100 µM | SW-620 > 100 µM | TK-10 > 100 µM | U-251 > 100 µM | UACC-257 > 100 µM | UACC-62 > 100 µM | UO-31 > 100 µM | XF498 > 100 µM
> 100 µM: HCT-15
